pIC50: −log10 of the molar value.
Tested on: 695427-040-R-J1-PDC complex spheroid viability
Assay: Anticancer human tumor 695427-040-R-J1-PDC patient-derived colon adenocarcinoma cell line growth inhibition [POLQ]
Settings: for pIC50: curve of first compound; for viability, T/C: stronger effect = lower value
Method in brief: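 Complex spheroid viability model combining PDC tumour cells with endothelial (HUVEC) and MSC stromal cells. Novobiocin, ART-558 or RP6685 were tested singly and in combination with standard and investigational anticancer drugs. Each was titrated in half-log steps from near clinical Cmax, or from 10 microM where Cmax was unknown.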

[1] = second compound 0.0316 µM, first compound 0.0316 µM
[2] = second compound 0.0316 µM, first compound 0.1 µM
[3] = second compound 0.0316 µM, first compound 0.316 µM
[4] = second compound 0.0316 µM, first compound 1 µM
[5] = second compound 0.0316 µM, first compound 3.16 µM
[6] = second compound 0.0316 µM, first compound 10 µM
[7] = second compound 0.1 µM, first compound 0.0316 µM
[8] = second compound 0.1 µM, first compound 0.1 µM
[9] = second compound 0.1 µM, first compound 0.316 µM
[10] = second compound 0.1 µM, first compound 1 µM
[11] = second compound 0.1 µM, first compound 3.16 µM
[12] = second compound 0.1 µM, first compound 10 µM
[13] = second compound 0.316 µM, first compound 0.0316 µM
[14] = second compound 0.316 µM, first compound 0.1 µM
[15] = second compound 0.316 µM, first compound 0.316 µM
[16] = second compound 0.316 µM, first compound 1 µM
[17] = second compound 0.316 µM, first compound 3.16 µM
[18] = second compound 0.316 µM, first compound 10 µM
[19] = second compound 1 µM, first compound 0.0316 µM
[20] = second compound 1 µM, first compound 0.1 µM
[21] = second compound 1 µM, first compound 0.316 µM
[22] = second compound 1 µM, first compound 1 µM
[23] = second compound 1 µM, first compound 3.16 µM
[24] = second compound 1 µM, first compound 10 µM
[25] = second compound 3.16 µM, first compound 0.0316 µM
[26] = second compound 3.16 µM, first compound 0.1 µM
[27] = second compound 3.16 µM, first compound 0.316 µM
[28] = second compound 3.16 µM, first compound 1 µM
[29] = second compound 3.16 µM, first compound 3.16 µM
[30] = second compound 3.16 µM, first compound 10 µM
[31] = second compound 10 µM, first compound 0.0316 µM
[32] = second compound 10 µM, first compound 0.1 µM
[33] = second compound 10 µM, first compound 0.316 µM
[34] = second compound 10 µM, first compound 1 µM
[35] = second compound 10 µM, first compound 3.16 µM
[36] = second compound 10 µM, first compound 10 µM
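Note: spheroids exposed to compounds for seven days.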
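Throughout, for viability, T/C: 100% = DMSO vehicle control viability.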

In the case of `COc1cc2cc(C(=O)CCC(=O)O)sc2cc1OC` + Nc1ccc(C#CCN(C(=O)Cc2ncc(C(F)(F)F)cc2C(F)(F)F)c2ccc(F)cc2)nn1, the pIC50 (second compound 0.0316 µM) was < 5.00, the pIC50 (second compound 0.1 µM) was < 5.00 and the pIC50 (second compound 0.316 µM) was < 5.00. The pIC50 (second compound 1 µM) was < 5.00, the pIC50 (second compound 3.16 µM) was < 5.00 and the pIC50 (second compound 10 µM) was < 5.00. The viability, T/C [1] was 111%, the viability, T/C [2] was 92% and the viability, T/C [3] was 103%. It also gave a viability, T/C [4] of 115%, a viability, T/C [5] of 105% and a viability, T/C [6] of 92.1%. It also gave a viability, T/C [7] of 109%, a viability, T/C [8] of 118% and a viability, T/C [9] of 103%. For the same compound, the viability, T/C [10] was 102%, the viability, T/C [11] was 115% and the viability, T/C [12] was 96.6%. For the same compound, the viability, T/C [13] was 111%, the viability, T/C [14] was 109% and the viability, T/C [15] was 94.1%. The viability, T/C [16] was 109%, the viability, T/C [17] was 105% and the viability, T/C [18] was 98.9%. For the same compound, the viability, T/C [19] was 109%, the viability, T/C [20] was 100% and the viability, T/C [21] was 104%. For the same compound, the viability, T/C [22] was 108%, the viability, T/C [23] was 120% and the viability, T/C [24] was 89.7%. The viability, T/C [25] was 111%, the viability, T/C [26] was 101% and the viability, T/C [27] was 102%. It also gave a viability, T/C [28] of 99.1%, a viability, T/C [29] of 106% and a viability, T/C [30] of 86.4%. For the same compound, the viability, T/C [31] was 105%, the viability, T/C [32] was 105% and the viability, T/C [33] was 98.7%. The viability, T/C [34] was 87.4%, the viability, T/C [35] was 102% and the viability, T/C [36] was 102%.

In the case of `O=C(Nc1ccc(O)c(NS(=O)(=O)c2ccc(F)cc2)c1)c1ccc(-c2ccccc2)cc1` + Nc1ccc(C#CCN(C(=O)Cc2ncc(C(F)(F)F)cc2C(F)(F)F)c2ccc(F)cc2)nn1, the pIC50 (second compound 0.0316 µM) was < 5.00, the pIC50 (second compound 0.1 µM) was < 5.00 and the pIC50 (second compound 0.316 µM) was < 5.00. For the same compound, the pIC50 (second compound 1 µM) was < 5.00, the pIC50 (second compound 3.16 µM) was < 5.00 and the pIC50 (second compound 10 µM) was < 5.00. It also gave a viability, T/C [1] of 108%, a viability, T/C [2] of 107% and a viability, T/C [3] of 105%. For the same compound, the viability, T/C [4] was 107%, the viability, T/C [5] was 109% and the viability, T/C [6] was 91.9%. For the same compound, the viability, T/C [7] was 112%, the viability, T/C [8] was 105% and the viability, T/C [9] was 92.8%. It also gave a viability, T/C [10] of 104%, a viability, T/C [11] of 104% and a viability, T/C [12] of 97.3%. The viability, T/C [13] was 106%, the viability, T/C [14] was 106% and the viability, T/C [15] was 99.8%. It also gave a viability, T/C [16] of 101%, a viability, T/C [17] of 108% and a viability, T/C [18] of 87.4%. The viability, T/C [19] was 112%, the viability, T/C [20] was 97.4% and the viability, T/C [21] was 99.1%. For the same compound, the viability, T/C [22] was 105%, the viability, T/C [23] was 119% and the viability, T/C [24] was 80.2%. The viability, T/C [25] was 108%, the viability, T/C [26] was 104% and the viability, T/C [27] was 99.2%. For the same compound, the viability, T/C [28] was 109%, the viability, T/C [29] was 112% and the viability, T/C [30] was 112%. The viability, T/C [31] was 99%, the viability, T/C [32] was 94% and the viability, T/C [33] was 104%. For the same compound, the viability, T/C [34] was 94.7%, the viability, T/C [35] was 93.5% and the viability, T/C [36] was 88.1%.

From PubChem BioAssay AID1963840 (Molecular Pharmacology Branch, DTP, NCI, 2024)
